Source: ChEMBL document CHEMBL5046276 (J Med Chem, 2022)
pIC50: −log10 of the molar value. Activity calls are given as the source filed them. The calls are words filed in the database; no cut-off is given here.

Key:
[1] = tested on: Plasmodium falciparum; experiment: Antimalarial activity against asexual blood stage wild-type Plasmodium falciparum 3D7 assessed as parasite growth inhibition incubated for 72 hrs by SYBR Green I staining based fluorescence analysis; type: functional, organism-based; details: 3D7, 72 h
[2] = tested on: Plasmodium falciparum; experiment: Antimalarial activity against asexual blood stage quinine-resistant Plasmodium falcipuram C2A assessed as parasite growth inhibition incubated for 72 hrs by SYBR Green I staining based fluorescence analysis; type: functional, organism-based
[3] = Selectivity index, ratio of IC50 for cytotoxicity against HEK293T cells to IC50 for antimalarial activity against asexual blood stage wild-type Plasmodium falciparum 3D7; type: toxicity, cell-based; details: human, read-out: Ratio IC50
[4] = Metabolic stability in mouse liver microsomes assessed as half life at […] incubated for 45 mins in presence of NADPH by LC/MS analysis; type: ADME, Microsome; details: for t1/2: microsomes, 0.75 h, 10000 µM
[5] = tested on: Plasmodium falciparum; experiment: Antimalarial activity against asexual blood stage chloroquine-resistant Plasmodium falcipuram GB4 assessed as parasite growth inhibition incubated for 72 hrs by SYBR Green I staining based fluorescence analysis; type: functional, organism-based; details: GB4, 72 h
[6] = tested on: Plasmodium falciparum; experiment: Antimalarial activity against asexual blood stage chloroquine-resistant Plasmodium falciparum Dd2 assessed as parasite growth inhibition incubated for 72 hrs by SYBR Green I staining based fluorescence analysis; type: functional, organism-based; details: Dd2, 72 h
[7] = tested on: Plasmodium yoelii; experiment: Antimalarial activity against blood stage Plasmodium yoelii infected in BALB/c mouse assessed as parasite killing by measuring RBC cells in blood smear at 60 mg/kg, ip qd for 5 days by microscopic analysis; type: functional, organism-based; details: Erythrocyte, time 5.0 day
[8] = tested on: Plasmodium falciparum; experiment: Antimalarial activity against asexual blood stage sulfadoxine-pyrimethamine/mefloquine-resistant Plasmodium falcipuram CP286 assessed as parasite growth inhibition incubated for 72 hrs by SYBR Green I staining based fluorescence analysis; type: functional, organism-based; details: CP286, 72 h
[9] = Cytotoxicity against human HepG2 cells incubated for 72 hrs by CCK-8 assay
[10] = tested on: Plasmodium yoelii; experiment: Antimalarial activity against blood stage Plasmodium yoelii infected in BALB/c mouse assessed as parasitemia at 60 mg/kg, ip qd for 5 days and measured after 14 days; type: functional; details: time 14 day
[11] = Selectivity index, ratio of IC50 for cytotoxicity against human HepG2 cells to IC50 for antimalarial activity against asexual blood stage wild-type Plasmodium falciparum 3D7; type: toxicity, cell-based; details: read-out: Ratio IC50
[12] = Cytotoxicity against HEK293T cells incubated for 72 hrs by CCK-8 assay; details: human
[13] = tested on: Plasmodium yoelii; experiment: Antimalarial activity against blood stage Plasmodium yoelii infected in BALB/c mouse assessed as parasitemia at 60 mg/kg, ip qd for 5 days and measured after 16 days; type: functional; details: time 16 day
[14] = Metabolic stability in mouse liver microsomes assessed as intrinsic clearance at […] incubated for 45 mins in presence of NADPH by LC/MS analysis; type: ADME, Microsome; details: read-out: CLH
[15] = Apparent clearance in BALB/c mouse at 5 mg/kg, ip measured after upto 24 hrs by LC-MS/MS analysis; type: ADME, organism-based; details: in vivo, read-out: CLz/F (converted)
[16] = tested on: Plasmodium falciparum; experiment: Antimalarial activity against blood stage asynchronous Plasmodium falcipuram 3D7 assessed as parasite growth inhibition by measuring parasitemia incubated for 6 to 12 hrs followed by compound washout and replacement with fresh medium without compounds and measured after 4 days by flow cytometry; type: functional, organism-based; details: dose 10-100 nM, time 6-12 hrs
[17] = Cmax in BALB/c mouse at 5 mg/kg, ip measured upto 24 hrs by LC-MS/MS analysis; type: ADME, organism-based; parameters: route intraperitoneal, dose 5 mg/kg, time <=24; details: in vivo
[18] = Tmax in BALB/c mouse at 5 mg/kg, ip measured after upto 24 hrs by LC-MS/MS analysis; type: ADME, organism-based; details: in vivo
[19] = tested on: Plasmodium falciparum; experiment: In vivo inhibition of C-terminal glmS fused HDAC2 in Plasmodium falcipuram 3D7 assessed as inhibition of parasite growth incubated for 4 hrs followed by compound washout and replacement with fresh medium with compounds measured after 68 hrs by SYBR Green I staining based fluorescence analysis; type: functional, organism-based
[20] = In vivo inhibition of C-terminal glmS fused HDAC1 in Plasmodium falcipuram 3D7 assessed as inhibition of parasite growth incubated for 4 hrs followed by compound washout and replacement with fresh medium with compounds measured after 68 hrs by SYBR Green I staining based fluorescence analysis; type: functional, organism-based, Plasmodium falciparum
[21] = tested on: Plasmodium falciparum; experiment: (§1) Antimalarial activity against synchronized Plasmodium falcipuram 3D7 infected in human RBC assessed as irreversible inhibition of parasite growth at ring stage at 40 nM treated at 5 to 17 hpi incubated for 12 hrs followed by compound washout and replacement with fresh medium without compounds and measured after 4 days by flow cytometry; type: functional, organism-based
[22] = tested on: Plasmodium falciparum; experiment: In vivo inhibition of C-terminal TY1 fused HDAC2 in Plasmodium falcipuram 3D7 assessed as inhibition of parasite growth incubated for 4 hrs followed by compound washout and replacement with fresh medium with compounds measured after 68 hrs by SYBR Green I staining based fluorescence analysis; type: functional, organism-based
[23] = tested on: Plasmodium berghei; experiment: Antimalarial activity against liver stage transgenic Plasmodium berghei ANKA sporozoites transfected with GFP-Luc infected in BALB/c mouse assessed as reduction in liver stage parasite infection at 30 mg/kg, iv measured for 1 to 4 days post-administration by IVIS spectrum in vivo imaging analysis; type: functional, organism-based; details: time 1-4 day
[24] = In vivo inhibition of C-terminal TY1 fused HDAC1 in Plasmodium falcipuram 3D7 assessed as inhibition of parasite growth incubated for 4 hrs followed by compound washout and replacement with fresh medium with compounds measured after 68 hrs by SYBR Green I staining based fluorescence analysis; type: functional, organism-based, Plasmodium falciparum
[25] = tested on: Plasmodium falciparum; experiment: as §1, with “schizont” for “ring”, “29” for “at 5”, “41” for “17”; type: functional, organism-based
[26] = Toxicity in BALB/c mouse infected with blood stage Plasmodium yoelii assessed as animal death at 30 mg/kg, ip qd for 5 days and measured upto 60 days; type: organism-based; details: in vivo, 1440 h, time 60 day
[27] = tested on: Plasmodium falciparum; experiment: In vivo inhibition of C-terminal TY1 fused HDAC1 in Plasmodium falcipuram 3D7 assessed as inhibition of parasite growth by measuring downregulation of RBC invasion-related genes expression level by RNA-seq analysis; type: functional, organism-based
[28] = Toxicity in BALB/c mouse infected with blood stage Plasmodium yoelii assessed as animal death at 60 mg/kg, ip qd for 5 days measured from day 2 post compound treatment; type: organism-based; details: in vivo, 120 h, time 5 day
[29] = tested on: Plasmodium falciparum; experiment: Antimalarial activity against blood stage asynchronous Plasmodium falcipuram 3D7 assessed as suppression of parasite reproduction by measuring parasitemia at 10 nM incubated for 24 hrs followed by compound washout and replacement with fresh medium without compounds and measured after 4 days by flow cytometry; type: functional
[30] = Apparent volume of distribution in BALB/c mouse at 5 mg/kg, ip measured after upto 24 hrs by LC-MS/MS analysis; type: ADME, organism-based; details: in vivo, read-out: Vz/F
[31] = tested on: Plasmodium falciparum; experiment: Inhibition of Plasmodium falcipuram recombinant HDAC1 using HDAC-Glo I/II as substrate at 50 to 800 nM preincubated for 90 mins by luminescence based microplate reader analysis; details: dose 50-800 nM
[32] = tested on: Plasmodium falciparum; experiment: Antimalarial activity against synchronized Plasmodium falcipuram 3D7 infected in human RBC assessed as ring stage parasite killing at 40 nM treated […] and incubated for 12 hrs followed by compound washout and replacement with fresh medium without compounds and measured at 50 hrs post infection by Geimsa staining based microscopy; type: functional, organism-based
[33] = tested on: Plasmodium falciparum; experiment: Antimalarial activity against blood stage asynchronous Plasmodium falcipuram 3D7 assessed as parasite growth inhibition by measuring parasitemia at 10 to 100 nM incubated for 12 to 24 hrs by flow cytometry; type: functional, organism-based; details: dose 10-100 nM, time 12-24 hrs
[34] = Toxicity in BALB/c mouse infected with blood stage Plasmodium yoelii assessed as animal death at 60 mg/kg, ip qd for 5 days and measured on day 28; type: organism-based; details: in vivo, 672 h, time 28 day
[35] = tested on: Plasmodium falciparum; experiment: Inhibition of Plasmodium falcipuram HDAC assessed as effect on parasite histone deacetylation level at 5 to 20 nM incubated for 4 hrs by Western blot analysis; details: dose 5-20 nM
[36] = tested on: Plasmodium falciparum; experiment: In vivo inhibition of C-terminal glmS fused HDAC1 in Plasmodium falcipuram 3D7 assessed as inhibition of parasite growth by measuring downregulation of RBC invasion-related genes expression level by RNA-seq analysis; type: functional, organism-based
[37] = tested on: Plasmodium yoelii; experiment: Antimalarial activity against blood stage Plasmodium yoelii infected in BALB/c mouse assessed as parasite recrudescence by measuring parasitemia at 60 mg/kg, ip qd for 5 days and measured on 11 to 26 days; type: functional; details: time 11-26 day
[38] = target: T1, NAD-dependent protein deacetylase sirtuin-2 (Homo sapiens, UniProt Q8IXJ6); experiment: Inhibition of human C-terminal His-tagged SIRT2 (50 to 356 residues) expressed in Escherichia coli using Ac-peptide as substrate incubated for 4 hrs followed by trypsin addition and further incubated for 2 hrs
T1 sequence (Q8IXJ6 whole entry): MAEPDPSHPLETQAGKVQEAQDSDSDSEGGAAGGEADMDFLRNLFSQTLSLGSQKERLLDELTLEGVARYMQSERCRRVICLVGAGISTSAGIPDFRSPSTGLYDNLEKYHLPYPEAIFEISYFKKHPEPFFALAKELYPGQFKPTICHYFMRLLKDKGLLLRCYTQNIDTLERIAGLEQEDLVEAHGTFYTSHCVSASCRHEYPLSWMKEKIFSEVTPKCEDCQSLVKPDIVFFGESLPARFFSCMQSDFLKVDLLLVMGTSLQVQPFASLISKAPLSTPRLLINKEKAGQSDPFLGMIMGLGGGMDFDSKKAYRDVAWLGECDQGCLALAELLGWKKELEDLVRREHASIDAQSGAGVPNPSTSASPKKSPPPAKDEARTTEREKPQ

Cl.Cn1cc(CN2CC3(CCN(c4ncc(C(=O)NO)cn4)C3)C2)c2ncccc21
pIC50 [1]: 8.57
pIC50 [2]: 8.42
selectivity ratio [3]: > 7490
t1/2 [4]: 2.9965 h
pIC50 [5]: 8.35
pIC50 [6]: 8.51
Activity [7]: inactive
pIC50 [8]: 7.88
IC50 at 72 h [9]: 20000 nM
Activity [10]: 46.37%
selectivity ratio [11]: > 7490
IC50 at 72 h [12]: > 20000 nM

Cl.Cn1c(CN2CC3(CCN(c4ncc(C(=O)NO)cn4)C3)C2)nc2ccccc21
pIC50 [1]: 8.74
pIC50 [2]: 8.42
selectivity ratio [3]: 5070
half-life ([4]; liver microsomes): 2.23 h
pIC50 [5]: 8.33
pIC50 [6]: 8.40
Activity [7]: inactive
pIC50 [8]: 8.01
IC50 at 72 h [9]: > 9450 nM
selectivity ratio [11]: > 5140
Activity [13]: 16.57%
IC50 at 72 h [12]: 9330 nM
CLint scaled [14]: 40.7 mL/min/kg

Cn1cc(CNCC2CCN(c3ncc(C(=O)NO)cn3)CC2)c2ccccc21 [QUISINOSTAT]
CL/F [15]: 462 mL/min/kg
Activity [16]: Dose dependent effect
pIC50 [1]: 8.40
Cmax [17]: 89 ng/mL
Tmax [18]: 4.8 min
pIC50 [2]: 8.60
inhibition [19]: Active
pIC50 [20]: 8.25
Activity [21]: Active
inhibition [22]: Active
Activity [23]: inactive
pIC50 [24]: 7.72
t1/2 [4]: 10.5 h
Activity [25]: Active
pIC50 [5]: 8.76
Activity [26]: Toxic
inhibition [27]: Active
Activity [28]: Toxic
Activity [29]: 100%
pIC50 [6]: 8.15
Vd/F [30]: 245 L/kg
inhibition [31]: Active
Activity [32]: Active
Activity [33]: Active
Activity [34]: Toxic
Activity [35]: Active
IC50 at 72 h [9]: 30 nM
inhibition [36]: Active
IC50 at 72 h [12]: 60 nM
Activity [37]: 0.05%

Cc1ccc(C(=O)Nc2ccc(S(=O)(=O)O)c3cc(S(=O)(=O)O)cc(S(=O)(=O)O)c23)cc1NC(=O)c1cccc(NC(=O)Nc2cccc(C(=O)Nc3cc(C(=O)Nc4ccc(S(=O)(=O)O)c5cc(S(=O)(=O)O)cc(S(=O)(=O)O)c45)ccc3C)c2)c1 [SURAMIN]
pIC50 [38]: 5.26
